# Source: patent US20050245520A1, “2-Phenylpyridin-4-yl derivatives as alk5 inhibitors” (priority 2002, published 2005)
# Tested on: not given
# Assay: not given
# Settings: not given
row,melting point [°C],Structure (SMILES)
1,165,"COCCCNC(=O)c1ccc(-c2cc(-c3c(-c4cccc(C)n4)nc4ccccn34)ccn2)cc1 [Example 67, 2-(6-methyl-pyridin-2-yl)-3-{2-[4-((3-methoxypropylamino)carbonyl)phenyl]-pyridin-4-yl}-imidazo[1,2-a]pyridine]"
2,150,"CN1CCN(c2ccc(-c3cc(-c4c(-c5ccccn5)nc5ccccn45)ccn3)cc2)CC1 [Example 55, 3-{2-[4-(4-methylpiperazin-1-yl)-phenyl]-pyridin-4-yl}-2-pyridin-2-yl-imidazo[1,2-a]pyridine]"
3,190,Cc1cccc(-c2n[nH]cc2-c2ccnc(-c3ccc(Cl)cc3)c2)n1 [Example 5]
4,210,"Cc1cccc(-c2[nH]c(C(C)(C)C)nc2-c2ccnc(-c3ccc(OCC(N)=O)cc3)c2)n1 [Example 107, 2-{4-[4-(2-tert-Butyl-5-{6-methyl}pyridin-2-yl-1H-imidazol-4-yl)-pyridin-2-yl]-phenoxy}-acetamide]"
5,174,Cc1cccc(-c2[nH]c(C(C)(C)C)nc2-c2ccnc(-c3ccc(C(=O)NC4CCOCC4)cc3)c2)n1 [Example 81]
6,145,"c1ccc(-c2nc3ccccn3c2-c2ccnc(-c3ccc(N4CCOCC4)cc3)c2)nc1 [Example 54, 3-[2-(4-(morpholin-4-yl)-phenyl)-pyridin-4-yl]-2-pyridin-2-yl-imidazo[1,2-a]pyridine]"
7,217,"Cc1ccn2c(-c3ccnc(-c4ccc(OCc5cn(C)cn5)cc4)c3)c(-c3cccc(C)n3)nc2c1 [Example 75, 7-methyl-2-(6-methyl-pyridin-2-yl)-3-{2-[4-((1-methyl-imidazol-4-yl)methyloxy)phenyl]-pyridin-4-yl}-imidazol[1,2-a]pyridine]"
8,198,Cc1cccc(-c2n[nH]cc2-c2ccnc(-c3ccc(C#N)cc3)c2)n1 [Example 3]
9,191,Cc1cccc(-c2sc(N)nc2-c2ccnc(-c3ccc(OCC(N)=O)cc3)c2)n1 [Example 134]
10,156,"Cn1cnc(COc2ccc(-c3cc(-c4nc(C(C)(C)C)[nH]c4-c4ccccn4)ccn3)cc2)c1 [Example 109, 4-(2-tert-Butyl-5-pyridin-2-yl-1H-imidazol-4-yl)-2-[4-(1-methyl-1H-imidazol4-ylmethoxy)-phenyl]-pyridine]"
11,120,"Cc1cccc(-c2nc3ccccn3c2-c2ccnc(-c3ccc(OCc4cn(C)cn4)cc3)c2)n1 [Example 76, 2-(6-methyl-pyridin-2-yl)-3-{2-[4-((1-methyl-imidazol-4-yl)methyloxy)phenyl]-pyridin-4-yl}-imidazo[1,2-a]pyridine]"
12,148,"Cc1cccc(-c2n[nH]cc2-c2ccnc(-c3ccc(C(=O)NC4CCOCC4)cc3)c2)n1 [Example 14, 4-{4-[3-(6-methylpyridin-2-yl)-1H-pyrazol-4-yl]pyridin-2-yl}-N-(tetrahydro-2H-pyran-4-yl)benzamide]"
13,187,"Cc1cccc(-c2[nH]c(C(C)(C)C)nc2-c2ccnc(-c3ccc(CN(C)C)cc3)c2)n1 [Example 101, (4-{4-[2-tert-Butyl-5-(6-methyl-pyridin-2-yl)-1H-imidazol-4-yl]-pyridin-2-yl}-benzyl)-dimethyl-amine]"
14,232 to 234,Cc1cccc(-c2n[nH]cc2-c2ccnc(-c3ccc(S(C)(=O)=O)cc3)c2)n1 [Example 7]
15,110,"Cc1cccc(-c2nc3ccccn3c2-c2ccnc(-c3ccc(C(=O)N4CCOCC4)cc3)c2)n1 [Example 66, 2-(6-methyl-pyridin-2-yl)-3-{2-[4-((morpholin-4-yl)carbonyl)phenyl]-pyridin-4-yl}-imidazo[1,2-a]pyridine]"
16,156,"Cc1cccc(-c2nc3ccccn3c2-c2ccnc(-c3ccc(CN4CCOCC4)cc3)c2)n1 [Example 56, 2-(6-methyl-pyridin-2-yl)-3-[2-(4-(morpholin-4-ylmethyl)phenyl)-pyridin-4-yl]-imidazo[1,2-a]pyridine]"
17,208,"Cc1ccn2c(-c3ccnc(-c4ccc(N5CCOCC5)cc4)c3)c(-c3cccc(C)n3)nc2c1 [Example 80, 7-methyl-2-(6-methyl-pyridin-2-yl)-3-{2-[4-(morpholin-4-yl)phenyl]-pyridin-4-yl}-imidazo[1,2-a]pyridine]"
18,232,Cc1cccc(-c2sc(N)nc2-c2ccnc(-c3ccc(OC(F)(F)F)cc3)c2)n1 [Example 126]

row,melting point [°C],Structure (SMILES)
1,190,"Cc1cccc(-c2nc3ccccn3c2-c2ccnc(-c3ccc(N4CCOCC4)cc3)c2)n1 [Example 79, 2-(6-methyl-pyridin-2-yl)-3-{2-[4-(morpholin-4-yl)phenyl]-pyridin-4yl}-imidazo[1,2-a]pyridine]"
2,135,"Cc1cccc(-c2nc3ccccn3c2-c2ccnc(-c3ccc(NS(=O)(=O)C(F)(F)F)cc3)c2)n1 [Example 53, 2-(6-methyl-pyridin-2-yl)-3-{2-[4-(trifluoromethylsulfonylamino)phenyl]-pyridin-4-yl}-imidazo[1,2-a]pyridine]"
3,168,"Cc1cccc(-c2[nH]c(C(C)(C)C)nc2-c2ccnc(-c3ccc(OCCN4CCCC4)cc3)c2)n1 [Example 108, 4-(2-tert-Butyl-5-{6-methyl}-pyridin-2-yl-1H-imidazol-4-yl)-2-[4-(2-pyrrolidin-1-yl-ethoxy)-phenyl]-pyridine]"
4,246,Nc1nc(-c2ccccn2)c(-c2ccnc(-c3ccc(N4CCOCC4)cc3)c2)s1 [Example 111]
5,222,"COc1ccc(-c2cc(-c3c(-c4ccccn4)nc4ccccn34)ccn2)cc1 [Example 34, 3-[2-(4-methoxyphenyl)-pyridin-4-yl]-2-pyridin-2-yl-imidazo[1,2-a]pyridine]"
6,170,"Cc1cccc(-c2cn[nH]c2-c2ccnc(-c3ccc(C(=O)NC4CCOCC4)cc3)c2)n1 [Example 18, 3-[2-(4-((tetrahydropyran-4-yl)aminocarbonyl)phenyl)pyridin-yl]-4-[6-methylpyridin-2-yl]-1H-pyrazole]"
7,213,"Cc1ccn2c(-c3ccnc(-c4ccc(OCC(N)=O)cc4)c3)c(-c3cccc(C)n3)nc2c1 [Example 77, 7-methyl-2-(6-methyl-pyridin-2-yl)-3-{2-[4(aminocarbonylmethyloxy)phenyl]-pyridin-4-yl}-imidazo[1,2-a]pyridine]"
8,191,"Cc1cccc(-c2n[nH]cc2-c2ccnc(-c3ccc(OCc4cn(C)cn4)cc3)c2)n1 [Example 1, 2-{4-[(1-methyl-1H-imidazol-4-yl)methoxy]phenyl}-4-[3-(6-methylpyridin-2-yl)-1H-pyrazol-4-yl]pyridine]"
9,236,Cc1cccc(-c2sc(N)nc2-c2ccnc(-c3ccc(CN4CCOCC4)cc3)c2)n1 [Example 131]
10,128,Cc1cccc(-c2c[nH]nc2-c2ccnc(-c3ccc(CN4CCOCC4)cc3)c2)n1 [Example 21]
11,246,Cc1cccc(-c2sc(N)nc2-c2ccnc(-c3ccc(N4CCOCC4)cc3)c2)n1 [Example 132]
12,131,Cc1cccc(-c2n[nH]cc2-c2ccnc(-c3ccc(OC(F)(F)F)cc3)c2)n1 [Example 4]
13,244,"CCS(=O)(=O)c1ccc(-c2cc(-c3c[nH]nc3-c3cccc(C)n3)ccn2)cc1 [Example 2, 2-[4-(Ethylsulfonyl)phenyl]-4-[3-(6-methylpyridin-2-yl)-1H-pyrazol-4-yl]pyridine]"
14,183,"Cc1cccc(-c2nc3c(C)cccn3c2-c2ccnc(-c3ccc(OCC(N)=O)cc3)c2)n1 [Example 78, 8-methyl-2-(6-methyl-pyridin-2-yl)-3-{2-[4-(aminocarbonylmethyloxyl)phenyl]-pyridin-4-yl}-imidazo[1,2-a]pyridine]"
15,210,Cc1cccc(-c2c[nH]nc2-c2ccnc(-c3ccc(N4CCOCC4)cc3)c2)n1 [Example 20]
16,210,Cc1cccc(-c2sc(N)nc2-c2ccnc(-c3ccc(CN(C)C)cc3)c2)n1 [Example 137]
17,222,Cc1cccc(-c2sc(N)nc2-c2ccnc(-c3ccc(Cl)cc3)c2)n1 [Example 125]
18,219,CCS(=O)(=O)c1ccc(-c2cc(-c3nc(N)sc3-c3cccc(C)n3)ccn2)cc1 [Example 127]

# Tested on: TGF-β signalling (PAI-1 promoter-luciferase in HepG2 cells)
# Assay: Cellular transcriptional assay: PAI-1 promoter firefly luciferase reporter in cells exposed to TGF-β
# Type: cell-based
# Settings: 500 μM CPO in presence of TGF-β; relative to TGF-β only
# Protocol: Assay 1 (Cellular Transcriptional Assay)
# The assay was performed in HepG2 cells stably transfected with the PAI-1 promoter (known to be a strong TGF-β responsive promoter) linked to a luciferase (firefly) reporter gene. The compounds were selected on their ability to inhibit luciferase activity in cells exposed to TGF-β. In addition, cells were transfected with a second luciferase (Renilla) gene which was not driven by a TGF-β responsive promoter and was used as a toxicity control.
# 96 well microplates were seeded, using a multidrop apparatus, with the stably transfected cell line at a concentration of 35000 cells per well in 200 μl of serum-containing medium. These plates were placed in a cell incubator.
# 18 to 24 hours later (Day 2), cell-incubation procedure was launched. Cells were incubated with TGF-β and a candidate compound at concentrations in the range 50 nM to 10 μM (final concentration of DMSO 1%). The final concentration of TGF-β (rhTGFβ-1) used in the test was 1 ng/mL. Cells were incubated with a candidate compound 15-30 mins prior to the addition of TGF-β. The final volume of the test reaction was 150 μl. Each well contained only one candidate compound and its effect on the PAI-1 promoter was monitored.
# Columns 11 and 12 were employed as controls. Column 11 contained 8 wells in which the cells were incubated in the presence of TGF-β, without a candidate compound. Column 11 was used to determine the ‘reference TGF-β induced firefly luciferase value’ against which values measured in the test wells (to quantify inhibitory activity) were compared. […]
# 12 to 18 hours later (day 3), the luciferase quantification procedure was launched. […] Following agitation (15 to 30 mins), luciferase activities of the plates were read in a dual-injector luminometer (BMG lumistar). For this purpose, 50 μl of luciferase assay reagent and 50 μl of ‘Stop & Glo’ buffer were injected sequentially to quantify the activities of both luciferases. […] For each of the compounds tested, a concentration response curve was constructed from which an IC50 value was determined graphically.
row,Structure (SMILES),firefly and renilla luciferase activities (toxicity control)
1,"O=C1C=CCC1 [CPO, Cyclopentenone, reference compound]",around 50%
